Data published in ChEMBL document CHEMBL4152250, “Antibacterial and anti-TB tat-peptidomimetics with improved efficacy and half-life” (Eur J Med Chem, 2018).
Converted amounts (≈) assume the structure as drawn. Square brackets hold non-standard residues; d marks the D form. Peptide text beside a SMILES is read from it. Pro(cis-4-guanidino) = NC(N)=N[C@@H]1CN[C@H](C(=O)O)C1; βAla = NCCC(=O)O

Legend:
[1] = test system: Mycobacterium tuberculosis; assay: Antitubercular activity against active stage of Mycobacterium tuberculosis H37Ra ATCC 25177 after 8 days by XRMA; assay type: functional, organism-based; conditions: H37Ra ATCC 25177, 192 h
Pseudomonas aeruginosa = assay: Antibacterial activity against Pseudomonas aeruginosa NCIM 2036 after 8 hrs by serial dilution method; assay type: functional, organism-based; conditions: NCIM 2036, 8 h
Escherichia coli = assay: Antibacterial activity against Escherichia coli NCIM 2688 after 8 hrs by serial dilution method; assay type: functional, organism-based; conditions: NCIM 2688, 8 h
[2] = Cytotoxicity against human HeLa cells assessed as cell viability at 1 to 10 uM after 24 hrs by MTT assay relative to control; assay type: cell-based; conditions: read-out: Activity
Bacillus subtilis = assay: Antibacterial activity against Bacillus subtilis NCIM 2079 after 12 hrs by serial dilution method; assay type: functional, organism-based; conditions: NCIM 2079, 12 h
[3] = test system: Mycobacterium tuberculosis; assay: Antitubercular activity against dormant stage of Mycobacterium tuberculosis H37Ra ATCC 25177 after 12 days by XRMA; assay type: functional, organism-based; conditions: H37Ra ATCC 25177, 288 h
Staphylococcus aureus = assay: Antibacterial activity against Staphylococcus aureus NCIM 2010 after 12 hrs by serial dilution method; assay type: functional, organism-based; conditions: NCIM 2010, 12 h

Compound	IC50 [1]	MIC [1]	IC50 (Pseudomonas aeruginosa)	MIC (Pseudomonas aeruginosa)	IC50 (Escherichia coli)	MIC (Escherichia coli)	viability at 24 h, up to 10 µM [2]	IC50 (Bacillus subtilis)	MIC (Bacillus subtilis)	IC50 [3]	MIC [3]	IC50 (Staphylococcus aureus)	MIC (Staphylococcus aureus)
CC(=O)N[C@@H](Cc1ccccc1)C(=O)NCC(=O)N[C@@H](CCCNC(=N)N)C(=O)N[C@@H](CCCCN)C(=O)N[C@@H](CCCCN)C(=O)N[C@@H](CCCNC(=N)N)C(=O)N[C@@H](CCCNC(=N)N)C(=O)N[C@@H](CCC(N)=O)C(=O)N[C@@H](CCCNC(=N)N)C(=O)N[C@@H](CCCNC(=N)N)C(=O)N1C[C@@H](NC(=N)N)C[C@H]1C(=O)NCCC(N)=O (Ac-FGRKKRRQRR[Pro(cis-4-guanidino)][βAla]-NH2)	9700 nM	32.1 µM (≈ 53.1 µg/mL)	70 nM	10.3 µM (≈ 17 µg/mL)	92 nM	6.73 µM (≈ 11.1 µg/mL)	≥ 80%	149 nM	7.96 µM (≈ 13.2 µg/mL)	910 nM	23.9 µM (≈ 39.5 µg/mL)	86 nM	10.9 µM (≈ 18.1 µg/mL)
CC(=O)N[C@@H](Cc1ccccc1)C(=O)NCC(=O)N[C@@H](CCCNC(=N)N)C(=O)N[C@@H](CCCCN)C(=O)N[C@@H](CCCCN)C(=O)N1C[C@@H](NC(=N)N)C[C@H]1C(=O)N[C@@H](CCCNC(=N)N)C(=O)N[C@@H](CCC(N)=O)C(=O)N[C@@H](CCCNC(=N)N)C(=O)N[C@@H](CCCNC(=N)N)C(=O)N[C@@H](CCCNC(=N)N)C(=O)NCCC(N)=O (Ac-FGRKK[Pro(cis-4-guanidino)]RQRRR[βAla]-NH2)	4450 nM	28.6 µM (≈ 47.3 µg/mL)	47 nM	6.53 µM (≈ 10.8 µg/mL)	92 nM	13.5 µM (≈ 22.3 µg/mL)	≥ 80%	344 nM	29.9 µM (≈ 49.4 µg/mL)	2510 nM	33.9 µM (≈ 56.1 µg/mL)	104 nM	8.65 µM (≈ 14.3 µg/mL)
CC(=O)N[C@@H](Cc1ccccc1)C(=O)NCC(=O)N1C[C@@H](NC(=N)N)C[C@H]1C(=O)N[C@@H](CCCCN)C(=O)N[C@@H](CCCCN)C(=O)N[C@@H](CCCNC(=N)N)C(=O)N1C[C@@H](NC(=N)N)C[C@H]1C(=O)N[C@@H](CCC(N)=O)C(=O)N[C@@H](CCCNC(=N)N)C(=O)N[C@@H](CCCNC(=N)N)C(=O)N1C[C@@H](NC(=N)N)C[C@H]1C(=O)NCCC(N)=O (Ac-FG[Pro(cis-4-guanidino)]KKR[Pro(cis-4-guanidino)]QRR[Pro(cis-4-guanidino)][βAla]-NH2)	10600 nM	36.3 µM (≈ 59.9 µg/mL)	92 nM	12.6 µM (≈ 20.8 µg/mL)	105 nM	11.8 µM (≈ 19.5 µg/mL)	≥ 80%	135 nM	13.2 µM (≈ 21.8 µg/mL)	500 nM	21.1 µM (≈ 34.8 µg/mL)	227 nM	20.5 µM (≈ 33.9 µg/mL)
CC1(C)S[C@@H]2[C@H](NC(=O)[C@H](N)c3ccccc3)C(=O)N2[C@H]1C(=O)O [AMPICILLIN]	–	–	436 nM	12.5 µM (≈ 4.37 µg/mL)	146 nM	4.17 µM (≈ 1.46 µg/mL)	–	1000 nM	29.5 µM (≈ 10.3 µg/mL)	–	–	100 nM	2.8 µM (≈ 0.978 µg/mL)
NC[C@H]1O[C@H](O[C@H]2[C@H](O)[C@@H](O[C@H]3O[C@H](CO)[C@@H](O)[C@H](N)[C@H]3O)[C@H](N)C[C@@H]2N)[C@H](O)[C@@H](O)[C@@H]1O [KANAMYCIN]	–	–	49 nM	1.01 µM (≈ 0.489 µg/mL)	162 nM	3.3 µM (≈ 1.6 µg/mL)	–	135 nM	2.8 µM (≈ 1.36 µg/mL)	–	–	300 nM	> 61.9 µM
NC(=O)c1cnccn1 [PYRAZINAMIDE]	–	> 100 µM	–	–	–	–	–	–	–	–	> 100 µM	–	–
CO[C@H]1/C=C/O[C@@]2(C)Oc3c(C)c(O)c4c(O)c(c(/C=N/N5CCN(C)CC5)c(O)c4c3C2=O)NC(=O)/C(C)=C\C=C\[C@H](C)[C@H](O)[C@@H](C)[C@@H](O)[C@@H](C)[C@H](OC(C)=O)[C@@H]1C [RIFAMPIN]	–	0.97 µM (≈ 0.798 µg/mL)	–	–	–	–	–	–	–	–	0.91 µM (≈ 0.749 µg/mL)	–	–
